Columns and labels:
Format in all cases: cell-based, human
PSC27 cells [1] = assay: CCK8 cell viability of proliferating and senescent PSC27 under increasing PCC1
Method: P value at each PCC1 concentration is the significant difference after comparison between CTRL and BLEO groups. **, P<0.01; ***, P<0.001; ****, P<0.0001.
Pharmacodynamic analysis was conducted on a natural product library (BY-HEALTH) with a total of 41 components, most of which were medicinal plant extracts and had anti-senescence potential. Each product was diluted to a 96-well plate according to a certain concentration gradient, and the density was 5000 cells per well. The medium uses DMEM, and the working concentration of natural product (or compound) is generally controlled at 1 μM to 1 mM. After 3-7 days of drug treatment, cell proliferation was measured with CCK-8 Cell Counting Kit (based on WST-8 principle, Vazyme), and cell apoptosis activity was determined with Caspase 3/7 Activity Kit (Promega).

senescent PSC27 cells = assay: SA-β-Gal staining of PSC27 under increasing PCC1 concentration
Method: Senescence-associated (3-galactosidase (SA-β-Gal) staining was performed following a previously reported procedure (Debacq-Chainiaux et al., 2009). Briefly, cells in culture dishes were washed with PBS and fixed at room temperature. Cells were fixed in 2% formaldehyde and 0.2% glutaraldehyde for 3 minutes. SA-β-Gal was used for staining with freshly prepared staining solution overnight at 37° C. Images were taken on the next day and the percentage of positive cells per unit area was calculated.

PSC27 cells [2] = assay: Flow cytometry of apoptosis of PSC27
From the text: Q2, distribution area of early apoptotic cells; Q3, distribution area of late apoptotic cells.

SASP factors = assay: qRT-PCR of SASP molecules in BLEO-induced senescent PSC27 cells at different PCC1 concentrations
Method: All data are normalized results compared to the CTRL group. *, P<0.05; **, P<0.01.
Total RNA of cells in the growth phase or stasis phase was extracted with Trizol reagent, 1 mL Trizol was added to each T25 culture flask, the cell layer was scraped off with a cell scraper, transferred into a centrifuge tube, and mixed well until not viscous. […] After the RNA was quantified by a spectrophotometer, a small amount of total RNA was taken for 1% agarose electrophoresis to check the status and quality of the RNA. […]
Sample was loaded according to the above standard, and the reaction conditions were: 95° C. pre-denaturation for 15 seconds, then 95° C. for 5 seconds, 60° C. for 31 seconds, 40 cycles; melting curve conditions were 95° C. for 15 seconds, 60° C. for 30 seconds, 95° C. for 15 seconds. […] The expression of (3-actin was used as an internal reference. After the reaction was completed, the amplification of each gene was checked by software analysis, the corresponding threshold cycle number was derived, and the relative expression of each gene was calculated using the 2-AACt method. The peak and waveform of the melting curve was analyzed to determine whether the obtained amplification product was a specific single target fragment. […]

Oc1cc(O)c2c(c1)O[C@H](c1ccc(O)c(O)c1)[C@H](O)[C@H]2c1c(O)cc(O)c2c1O[C@H](c1ccc(O)c(O)c1)[C@H](O)[C@H]2c1c(O)cc(O)c2c1O[C@H](c1ccc(O)c(O)c1)[C@H](O)C2 [PCC1, procyanidin C1]
survival of proliferating cells (PSC27 cells [1]; proliferating PSC27, 200 μM PCC1): not significantly reduced
percentage of surviving senescent cells (PSC27 cells [1]; senescent PSC27, 200 μM PCC1): approximately 10%
concentration from which significant death of senescent cells is induced (PSC27 cells [1]; senescent vs control proliferating cells, CCK8): 50 µM
senescent cells remaining (senescent PSC27 cells; 150 μM PCC1, 80% staining positive without drug): 20%
killing effect at 200 μM versus 150 μM (senescent PSC27 cells; 200 μM PCC1): not further enhanced
concentration at which killing effect reached a threshold (senescent PSC27 cells; senescent PSC27): 150 µM
concentration from which senescent cells are eliminated (SA-β-Gal staining) (senescent PSC27 cells; senescent PSC27, 0-200 μM): 50 µM
change of proliferating cells (PSC27 cells [2]): not obvious
proportion of apoptosis in senescent PSC27 cells (PSC27 cells [2]): significantly increased
viability of senescent PSC27 cells (PSC27 cells [2]): significantly reduced
SASP inhibition at lower or higher concentrations (SASP factors; compared with 10 μM): less effective
working concentration inhibiting SASP development with the greatest efficiency (SASP factors; concentration gradient, senescent PSC27): 10 µM

Source: US12721832B2, “Anti-senescence plant polyphenol drug downregulating senescence-related secretory phenotype and use thereof” (BYHEALTH CO., LTD., priority 2021, dated 2026)
